According to PubChem BioAssay (NCI):
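Following 48 hours of exposure in 96-well plates, responses at five concentrations were used to interpolate endpoints linearly. The concentration for full growth arrest is given as TGI.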 Where a SMILES comes first, the peptide text is derived from it. [ ]: non-standard residue; d: D form. The star is where a group is joined. ξ: configuration not given here. ξD = NC(CC(=O)O)C(=O)O; Boc = CC(C)(C)OC(=O)*; Aib = CC(C)(N)C(=O)O; OtBu = CC(C)(C)O*

Tests used:
Assay in all cases: DTP human tumour cell line panel, 48 h
HS 578T breast = system: HS 578T breast
HOP-62 NSCLC = system: HOP-62 NSCLC
HOP-92 NSCLC = system: HOP-92 NSCLC
HCT-15 colon = system: HCT-15 colon
MALME-3M melanoma = system: MALME-3M melanoma
786-0 renal = system: 786-0 renal
OVCAR-3 ovarian = system: OVCAR-3 ovarian
OVCAR-8 ovarian = system: OVCAR-8 ovarian
M14 melanoma = system: M14 melanoma
DU-145 prostate = system: DU-145 prostate
SF-295 CNS = system: SF-295 CNS
HT29 colon = system: HT29 colon
NCI/ADR-RES ovarian = system: NCI/ADR-RES ovarian
EKVX NSCLC = system: EKVX NSCLC
MCF7 breast = system: MCF7 breast
KM12 colon = system: KM12 colon
NCI-H226 lung = system: NCI-H226 lung
MOLT-4 leukemia = system: MOLT-4 leukemia
UACC-62 melanoma = system: UACC-62 melanoma
COLO 205 colon = system: COLO 205 colon
SK-OV-3 ovarian = system: SK-OV-3 ovarian
K-562 leukemia = system: K-562 leukemia
PC-3 prostate = system: PC-3 prostate
RXF 393 renal = system: RXF 393 renal
A549 NSCLC = system: A549 NSCLC
SF-539 CNS = system: SF-539 CNS
RPMI-8226 leukemia = system: RPMI-8226 leukemia
MDA-MB-231 breast = system: MDA-MB-231 breast
ACHN renal = system: ACHN renal
SK-MEL-2 melanoma = system: SK-MEL-2 melanoma
SK-MEL-28 melanoma = system: SK-MEL-28 melanoma
UACC-257 melanoma = system: UACC-257 melanoma
SNB-75 CNS = system: SNB-75 CNS
OVCAR-4 ovarian = system: OVCAR-4 ovarian
CAKI-1 renal = system: CAKI-1 renal
UO-31 renal = system: UO-31 renal
A498 renal = system: A498 renal
NCI-H522 lung = system: NCI-H522 lung
MDA-MB-435 = system: MDA-MB-435
TK-10 renal = system: TK-10 renal
U251 CNS = system: U251 CNS
NCI-H23 lung = system: NCI-H23 lung
SF-268 CNS = system: SF-268 CNS
LOX IMVI melanoma = system: LOX IMVI melanoma
SK-MEL-5 melanoma = system: SK-MEL-5 melanoma
T-47D breast = system: T-47D breast
NCI-H460 lung = system: NCI-H460 lung
HCT-116 colon = system: HCT-116 colon
OVCAR-5 ovarian = system: OVCAR-5 ovarian
BT-549 breast = system: BT-549 breast
SNB-19 CNS = system: SNB-19 CNS
CCRF-CEM leukemia = system: CCRF-CEM leukemia
IGROV1 ovarian = system: IGROV1 ovarian
SW-620 colon = system: SW-620 colon

Measured: TGI

COC(=O)C(C)(C)NC(=O)C(C)(C)NC(=O)C(CC(=O)OC(C)(C)C)NC(=O)OC(C)(C)C (centres undefined) (Boc-[ξD](OtBu)-[Aib]-[Aib]-OMe)
> 100 µM: all assays above
